From paper PMC7380166, “How to Study the Metabolism of New Psychoactive Substances for the Purpose of Toxicological Screenings—A Follow-Up Study Comparing Pooled Human Liver S9, HepaRG Cells, and Zebrafish Larvae” (Frontiers in Chemistry, 2020) come the findings set out here.

One series has as its target T1, CYP2C8 (Homo sapiens, UniProt P10632).
T1 construct: purchased Corning; host or cells: baculovirus-transfected insect cell microsomes (Supersomes)
T1 sequence (P10632 1-490): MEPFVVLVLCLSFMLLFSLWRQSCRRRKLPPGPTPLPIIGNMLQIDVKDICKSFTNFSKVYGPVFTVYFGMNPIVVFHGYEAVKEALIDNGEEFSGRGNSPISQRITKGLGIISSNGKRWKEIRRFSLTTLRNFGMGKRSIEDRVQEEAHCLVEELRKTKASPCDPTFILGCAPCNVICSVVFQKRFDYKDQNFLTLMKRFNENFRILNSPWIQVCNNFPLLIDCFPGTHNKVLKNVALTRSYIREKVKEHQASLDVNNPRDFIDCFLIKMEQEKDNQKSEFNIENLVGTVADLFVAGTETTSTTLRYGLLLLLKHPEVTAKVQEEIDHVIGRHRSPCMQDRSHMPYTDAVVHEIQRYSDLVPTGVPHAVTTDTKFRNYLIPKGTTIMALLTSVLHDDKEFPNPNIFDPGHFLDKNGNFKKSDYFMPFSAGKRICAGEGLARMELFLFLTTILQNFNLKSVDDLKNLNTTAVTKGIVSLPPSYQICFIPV
The experiment in a line: Monooxygenases activity screening, CYP2C8. The series is classed as in vitro ADME. On the set-up: key: +, detected; –: −, not detected. Conditions: 25 μM 4F-MDMB-BINACA, 50 pmol/ml enzyme, 30 min, 37°C, duplicate. On the procedure:
According to an established protocol (Wagmann et al., [2016]), the final volume per reaction tube was 50 μl with a final 4F-MDMB-BINACA concentration of 25 μM and enzyme concentrations of 50 pmol/ml for CYP1A2, CYP2A6, CYP2B6, CYP2C8, CYP2C9, CYP2C19, CYP2D6, CYP2E1, CYP3A4, and CYP3A5, respectively, or 0.25 mg protein/ml for FMO3. Furthermore, the reaction mixture contained 90 mM phosphate buffer (pH 7.4), superoxide dismutase (200 U/ml), isocitrate (5 mM), MgCl2 (5 mM), isocitrate dehydrogenase (0.5 U/ml), and NADP^+ (1.2 mM). The phosphate buffer was replaced with Tris buffer (90 mM) for incubations with CYP2A6 and CYP2C9 according to the manufacturer's recommendation. All incubations were performed at 37°C for 30 min and terminated by adding 50 μl of ice-cold acetonitrile. Afterwards, the mixtures were centrifuged at 18,407 × g for 5 min, 70 μl of the supernatants was transferred into autosampler vials, and 1 μl was injected onto the LC-HRMS/MS system. Positive control incubations were performed with pHLM (1 mg microsomal protein/ml), and negative controls without enzyme were prepared to identify non-metabolically formed compounds. All incubations were done in duplicate.

Series [1] can be described thus: Incubations with pooled human liver S9 fraction (pHLS9), metabolite identification by LC-HRMS/MS. It is filed as in vitro ADME. Conditions: for Absolute peak area, pHLS9 1 h [25 μM] / Absolute peak area, pHLS9 6 h [25 μM]: 25 μM 4F-MDMB-BINACA, one replicate of n = 2, n.d. = not detected; for Absolute peak area, pHLS9 1 h [25 μM]: 1 h incubation; for Absolute peak area, pHLS9 6 h [25 μM]: 6 h incubation. The gist of the method:
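25 μM 4F-MDMB-BINACA incubated at 37°C with pHLS9 (2 mg/ml) plus phase I and II cofactors (NADP^+ regenerating system, UDPGA, PAPS, SAM, glutathione, acetyl-CoA), pH 7.4; sampled at 60 and 360 min, stopped with acetonitrile. Metabolites identified by positive-mode LC-HRMS/MS (full scan plus targeted MS^2), 5 ppm tolerance.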

Consider `CC(C)(C)C(NC(=O)c1nn(CCCCF)c2ccccc12)C(=O)O` (centres unmarked) [MB8], for which the “Detection of metabolite in incubation with CYP2C8” value (from here on “Detection of metabolite”) on CYP2C8 is “–”. Moreover, in series [1], the “Absolute peak area, pHLS9 1 h [25 μM]” value came to 1.01E+08 and the “Absolute peak area, pHLS9 6 h [25 μM]” value was found to be 2.77E+08.
On to `O=C(O)c1nn(CCCCF)c2ccccc12` [MB1], for which the “Detection of metabolite” value on CYP2C8 was “–”.
As for `COC(=O)[C@@H](NC(=O)c1nn(CCCCF)c2ccccc12)C(C)(C)CO` [MB16], the “Detection of metabolite” value at CYP2C8 is “–”. The “Absolute peak area, pHLS9 1 h [25 μM]” value in series [1] is given as 1.70E+05.
Take `COC(=O)C(NC(=O)c1nn(CCCCF)c2ccccc12)C(C)(C)C` (centres unmarked) [4F-MDMB-BINACA, methyl 2-[1-(4-fluorobutyl)-1H-indazole-3-carbonyl]amino-3,3-dimethylbutanoate]: the “Number of phase I metabolites detected, pHLS9 [25 μM]” value in series [1] (25 μM) was 15. Also, in series [1], the “Absolute peak area, pHLS9 1 h [25 μM]” value turned out to be 9.37E+08 and the “Absolute peak area, pHLS9 6 h [25 μM]” value was determined as 2.17E+08. Further, in series [1] (plasma, human data for ephylone and 4F-PHP from Wagmann et al., [2019b]), the “Relative number of matches with the four most abundant signals in human plasma, pHLS9 [25 μM]” value is 100%. Besides, the “Relative number of matches with the four most abundant signals in human urine, pHLS9 [25 μM]” value in series [1] (urine, human data for ephylone and 4F-PHP from Wagmann et al., [2019b]) is given as 75%.
For the molecule `COC(=O)[C@@H](NC(=O)c1n[nH]c2ccccc12)C(C)(C)C` [MB4], at CYP2C8, the “Detection of metabolite” value is “–”. Further, in series [1], the “Absolute peak area, pHLS9 1 h [25 μM]” value was found to be 5.62E+06 and the “Absolute peak area, pHLS9 6 h [25 μM]” value is recorded as 2.82E+05.
The matching figures for `COC(=O)[C@@H](NC(=O)c1nn(CCCCO)c2ccccc12)C(C)(C)C` [MB11]: “+”, 4.27E+06 and 3.89E+05.
